From PubChem BioAssay (NCI)
Values joined by “and” are separate entries in the source; they are usually repeats but may differ in a detail not shown here. Equal values may be shown once.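 The compound was tested at five concentrations on cells cultured in 96-well plates, with a 48-hour exposure period. GI50 is the concentration that inhibits growth by half. TGI: total growth inhibition.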

Assays:
Experiment in all cases: NCI anticancer screen, dose series, 48 h
[1] = test system: RPMI-8226 leukemia
[2] = test system: BT-549 breast
[3] = test system: CCRF-CEM leukemia
[4] = test system: COLO 205 colon
[5] = test system: HOP-62 NSCLC
[6] = test system: LOX IMVI melanoma
[7] = test system: SF-295 CNS

| Compound | GI50 [1] | TGI [1] [nM] | GI50 [2] | TGI [2] [nM] | GI50 [3] [nM] | TGI [3] [nM] | GI50 [4] | TGI [4] [nM] | GI50 [5] [nM] | TGI [5] [nM] | GI50 [6] | TGI [6] [nM] | GI50 [7] | TGI [7] [nM] |
| --- | --- | --- | --- | --- | --- | --- | --- | --- | --- | --- | --- | --- | --- | --- |
| CCN1CCN(CC(=O)Nc2nc3ccc(NCc4ccc(Br)cc4)cc3s2)CC1 | 1540 nM | 4070 |  |  |  |  |  |  |  |  |  |  |  |  |
| O=C1[C@H](Cc2ccc(O)cc2)N2C(=O)CCN(C(=O)NCc3ccccc3)[C@H]2CN1Cc1cccc2ccccc12 | 3660 nM | 23100 | 3010 nM | 22600 | 2190 | > 53100 | 748 nM | 2760 | 3220 | 19100 | 1430 nM | 14400 | 3220 nM | 17600 |
| COc1ccc(Cn2c(Br)c3c(c2-c2cc(OC)c(OC)c(OC)c2)CCc2sc(N)nc2-3)cc1 | 3160 nM | 32400 | 2390 nM | 9090 | 890 | 4400 | 1070 nM | 3700 | 1330 | > 47000 | 869 nM | 6140 | 556 nM | 7570 |
| CC[C@]12C=CCN3CC[C@@]4(c5ccc(OC)cc5N(C)[C@H]4[C@@](O)(C(=O)OC)[C@@H]1OC(=O)CCCN1CCN(CCCC(=O)O[C@@H]4[C@]5(CC)C=CCN6CC[C@@]7(c8ccc(OC)cc8N(C)[C@H]7[C@@]4(O)C(=O)OC)[C@@H]65)CC1)[C@@H]32 | 547 nM | 2260 | 1780 nM | 3330 | 1230 | 3030 | 1670 nM | 3250 | 1280 | 2810 | 399 nM | 1500 | 1740 nM | 3160 |
| CNS(=O)(=O)Nc1nccc(Cc2c(C)c3ccc(Oc4ncccn4)cc3oc2=O)c1F | 12300 nM and > 9210 nM | > 100000 | 24200 nM and > 10000 nM | > 100000 | > 100000 | > 100000 | 17.6 nM and 7.03 nM | > 100000 |  | > 100000 | 356 nM and 977 nM | > 100000 | 27800 nM and > 10000 nM | > 100000 |
| C/C(=C\c1csc(C)n1)[C@@H]1C[C@@H]2O[C@]2(C)CCC[C@H](C)[C@H](O)[C@@H](C)C(=O)C(C)(C)[C@@H](O)CC(=O)N1 | < 0.01 nM | < 0.01 | 0.187 nM | 0.416 | 0.125 | 0.203 | 0.182 nM | 0.438 | 0.352 | 0.508 | 0.12 nM | 0.226 | 0.156 nM | 0.423 |
| Cc1cccc(Oc2ccc(Nc3ncnc4ccc(NC(=O)CN(C)C)cc34)cc2Cl)c1 |  |  | 2400 nM | 8450 | 2540 | 8140 | 1710 nM | 3480 | 1890 | 4160 | 1530 nM | 2860 | 1660 nM | 3200 |
| O=C1Nc2ccc(Cl)cc2/C1=N/c1nc(-c2ccc(Cl)cc2)cs1 |  |  |  |  | 2280 | > 100000 | 1690 nM | 4180 |  |  |  |  |  |  |
| CCCCCCCCCCN=C(N)c1ccc(N2CCN(c3ccc(C(N)=NCCCCCCCCCC)cc3)CC2)cc1 | 1960 nM | > 50000 | 1690 nM | 5040 |  |  | 3930 nM | 15700 | 11300 | 29000 | 3500 nM | > 50000 | 1810 nM | 6120 |
| O=C1c2ccccc2N1C(=O)c1ccccc1[N+](=O)[O-] |  | > 100000 |  |  |  | > 100000 |  | > 100000 |  | > 100000 |  | 81600 |  |  |
